From patent publication US10695427B2, “Shape memory particles for biomedical uses” (The Johns Hopkins University, priority 2015, dated 2020)

Columns and labels:
MDA-MB-231 cells [1] = test: Gemcitabine/digoxin combination therapy, tumor relapse; type: in vivo, mice
Procedure: MDA-MB-231 cells were implanted into the mammary fat pad of female Scid mice. When a tumor was palpable (day 1), the mice were randomized to three groups, which were treated with intraperitoneal injections of: saline, gemcitabine [20 mg/kg on days 5, 10, 15, 20, and 25 (arrows)], or gemcitabine and digoxin (2 mg/kg on days 1-25). Tumor volumes were determined every 2-3 d and mean±SEM (n=3) are shown.
To examine the effect of HIF inhibition on tumor relapse, MDA-MB-231 cells were implanted into the mammary fat pad of Scid mice. When the tumor became palpable, the mice were randomized to receive intraperitoneal injections of saline, gemcitabine (20 mg/kg on days 5, 10, 15, 20, and 25), or the combination of digoxin (2 mg/kg on days 1-25) and gemcitabine.

MDA-MB-231 cells [2] = test: Paclitaxel/digoxin treatment of TNBC orthografts (tumor volume, Aldefluor assay, RT-qPCR); type: in vivo, mice; settings: tumors harvested on day 12; for percentage of ALDH+ cells (Aldefluor assay): compared with saline treatment
Procedure: MDA-MB-231 cells were implanted into the mammary fat pad of female severe combined immunodeficiency (Scid) mice. Mice were randomized to four groups, which were treated with: saline (control, C); digoxin (D); paclitaxel (P); or paclitaxel and digoxin (P/D). […] Tumors were harvested on day 12 for Aldefluor assay to determine the percentage of aldehyde dehydrogenase-expressing (ALDH^+) BCSCs (FIG. 17B) and RT-qPCR assays to quantify the expression of mRNAs encoding interleukin (IL) 8, IL-6, and the multidrug drug resistance protein MDR1 (FIG. 17C).

Row | SMILES | tumor growth during treatment (MDA-MB-231 cells [1]; intraperitoneal, gemcitabine 20 mg/kg days 5, 10, 15, 20, 25, digoxin 2 mg/kg days 1-25, Scid mice) | tumor growth after treatment was discontinued (relapse) (MDA-MB-231 cells [1]; up to day 32, 7 days after treatment was discontinued) | expression of IL-6, IL-8, and MDR1 mRNA (MDA-MB-231 cells [2]; RT-qPCR) | percentage of ALDH+ cells (Aldefluor assay) (MDA-MB-231 cells [2])
1 | Nc1ccn([C@@H]2O[C@H](CO)[C@@H](O)C2(F)F)c(=O)n1 [gemcitabine] | markedly reduced tumor growth | rapid tumor growth resumed |  | 
2 | CC(=O)O[C@H]1C(=O)[C@@]2(C)[C@H]([C@H](OC(=O)c3ccccc3)[C@]3(O)C[C@H](OC(=O)[C@H](O)[C@@H](NC(=O)c4ccccc4)c4ccccc4)C(C)=C1C3(C)C)[C@]1(OC(C)=O)CO[C@@H]1C[C@@H]2O [paclitaxel] |  |  | increased | significantly increased
3 | C[C@H]1O[C@@H](O[C@H]2[C@@H](O)C[C@H](O[C@H]3[C@@H](O)C[C@H](O[C@H]4CC[C@@]5(C)[C@H](CC[C@@H]6[C@@H]5C[C@@H](O)[C@]5(C)[C@@H](C7=CC(=O)OC7)CC[C@]65O)C4)O[C@@H]3C)O[C@@H]2C)C[C@H](O)[C@@H]1O [digoxin] |  |  |  | significantly decreased
